This note sets out measurements from patent publication US12473289B2, “Heterocyclic compounds as delta-5 desaturase inhibitors and methods of use” (Amgen Inc., priority 2019, dated 2025).

Delta-5-Desaturase (D5D), sequence (O60427 whole entry, species assumed): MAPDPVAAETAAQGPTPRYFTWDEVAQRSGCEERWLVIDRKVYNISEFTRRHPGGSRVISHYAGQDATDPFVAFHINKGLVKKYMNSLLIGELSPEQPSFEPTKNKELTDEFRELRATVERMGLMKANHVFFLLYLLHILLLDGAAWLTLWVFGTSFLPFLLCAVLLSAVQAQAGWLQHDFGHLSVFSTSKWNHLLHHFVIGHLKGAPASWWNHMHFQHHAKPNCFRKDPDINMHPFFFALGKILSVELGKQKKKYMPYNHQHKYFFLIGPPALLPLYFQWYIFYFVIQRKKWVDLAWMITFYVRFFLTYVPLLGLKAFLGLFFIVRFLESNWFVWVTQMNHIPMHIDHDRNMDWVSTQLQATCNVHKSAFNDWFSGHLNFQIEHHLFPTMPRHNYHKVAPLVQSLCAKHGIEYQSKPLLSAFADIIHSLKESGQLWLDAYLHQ

The test has as its target Delta-5-Desaturase (D5D) (Homo sapiens (Human), UniProt O60427). Kind of test: In vitro measurement of Delta-5-Desaturase inhibitory activity using DGLA-CoA and Arachidonyl-CoA mass spectrometric assays. Particulars: membrane preparations of D5D-overexpressing HEK293 6E cells; averaged over at least two independent runs. The format is biochemical. A digest of the protocol: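 DGLA-CoA and arachidonyl-CoA were read by RapidFire SPE triple-quad MS (negative mode, MRM) after a 1 h ambient-temperature reaction quenched with acetonitrile. Enzyme was D5D-overexpressing HEK293 6E membranes at 10 μg/mL final; substrate solution held 0.01 mM DGLA plus NADH, ATP and CoA. Inhibition was referenced to DMSO and no-enzyme wells; 4PL IC50.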
As for `O=c1c(-c2cnn(CCC(F)(F)F)c2)c(C(F)(F)F)nc2ccc(F)cn12` [Example 39-27, 7-fluoro-2-(trifluoromethyl)-3-[1-(3,3,3-trifluoropropyl)-1H-pyrazol-4-yl]-4H-pyrido[1,2-a]pyrimidin-4-one], the concentration for half-maximal inhibition (IC50) was found to be 0.0011 µM.
Then `COc1ccn2c(=O)c(-c3ccc(O[C@H](C)C#N)cc3)c(C(F)(F)F)nc2c1` [Example 8-8, (2R)-2-(4-(8-methoxy-4-oxo-2-(trifluoromethyl)-4H-pyrido[1,2-a]pyrimidin-3-yl)phenoxy)propanenitrile], with 0.566 µM; and `COc1ccn2c(=O)c(-c3cn(CCC(F)(F)F)cn3)c(C(F)(F)F)nc2c1` [Example 25, 8-Methoxy-2-(trifluoromethyl)-3-(1-(3,3,3-trifluoropropyl)-1H-imidazol-4-yl)-4H-pyrido[1,2-a]pyrimidin-4-one], with 0.0662 µM; and `COCc1ccc2nc(C(F)(F)F)c(-c3cnn(CC(F)(F)C(F)(F)F)c3)c(=O)n2c1` [Example 39-24, 7-(methoxymethyl)-3-[1-(2,2,3,3,3-pentafluoropropyl)-1H-pyrazol-4-yl]-2-(trifluoromethyl)-4H-pyrido[1,2-a]pyrimidin-4-one], with 1.52 µM.
The same measure for `O=c1c(-c2cnn(C3CC3)c2)c(C(F)(F)F)nc2ccccn12` [Example 5-3, 3-(1-cyclopropyl-1H-pyrazol-4-yl)-2-(trifluoromethyl)-4H-pyrido[1,2-a]pyrimidin-4-one]: 5.19 µM.
The same measure for `[2H]C([2H])([2H])Oc1ccn2c(=O)c(-c3ccc(OCC4CC4)cc3)c(C(F)(F)F)nc2c1` [Example 1-65, 3-(4-(cyclopropylmethoxy)phenyl)-8-(methyloxy-d3)-2-(trifluoromethyl)-4H-pyrido[1,2-a]pyrimidin-4-one]: 0.0032 µM.
Molecule `[2H]C([2H])([2H])Oc1ccn2c(=O)c(-c3cnn(CCCC(F)(F)F)c3)c(C(F)(F)F)nc2c1` [Example 1-63, 8-(methyloxy-d3)-3-(1-(4,4,4-trifluorobutyl)-1H-pyrazol-4-yl)-2-(trifluoromethyl)-4H-pyrido[1,2-a]pyrimidin-4-one] gave a concentration for half-maximal inhibition (IC50) of 0.0281 µM.
The same measure for `[2H]C([2H])([2H])n1c(=O)ccn2c(=O)c(-c3ccc(OCC(F)(F)F)cc3)c(C(F)(F)F)nc12` [Example 11-1, 1-(Methyl-d3)-7-(4-(2,2,2-trifluoroethoxy)phenyl)-8-(trifluoromethyl)-2H-pyrimido[1,2-a]pyrimidine-2,6(1H)-dione]: 0.0482 µM; for `O=c1c(-c2cnn(CCC(F)(F)F)c2)c(C(F)(F)F)nc2ccc(C3CC3)cn12` [Example 39-22, 7-cyclopropyl-2-(trifluoromethyl)-3-[1-(3,3,3-trifluoropropyl)-1H-pyrazol-4-yl]-4H-pyrido[1,2-a]pyrimidin-4-one]: 2.95 µM; for `COc1ccc2nc(C(F)(F)F)c(-c3cnn(CC(F)(F)C(F)(F)F)c3)c(=O)n2c1` [Example 39-6, 7-methoxy-3-[1-(2,2,3,3,3-pentafluoropropyl)-1H-pyrazol-4-yl]-2-(trifluoromethyl)-4H-pyrido[1,2-a]pyrimidin-4-one]: 0.115 µM.
Regarding `O=c1c(-c2cnn(CC(F)(F)C(F)(F)F)c2)c(C(F)(F)F)nc2ccccn12` [Example 39-5, 3-[1-(2,2,3,3,3-pentafluoropropyl)-1H-pyrazol-4-yl]-2-(trifluoromethyl)-4H-pyrido[1,2-a]pyrimidin-4-one], the half-inhibitory concentration (IC50) was determined as 0.0089 µM.
For the molecule `COc1ccn2c(=O)c(-c3cnn(CC4CC4(F)F)c3)c(C(F)(F)F)nc2c1` (racemic) [Example 39-42, 3-{1-[(2,2-difluorocyclopropyl)methyl]-1H-pyrazol-4-yl}-8-methoxy-2-(trifluoromethyl)-4H-pyrido[1,2-a]pyrimidin-4-one], the IC50 amounted to 0.0114 µM.
Take `COc1ccn2c(=O)c(-c3cnn(C[C@H]4CC4(F)F)c3)c(C(F)(F)F)nc2c1` [Example 69, 3-(1-{[(1R)-2,2-Difluorocyclopropyl]methyl}-1H-pyrazol-4-yl)-8-methoxy-2-(trifluoromethyl)-4H-pyrido[1,2-a]pyrimidin-4-one]: the midpoint of inhibition, the IC50, lay at 0.0182 µM.
Then `COc1cc2nc(C(F)(F)F)c(-c3cnn(CC4CC4(F)F)c3)c(=O)n2cc1F` (racemic) [Example 39-59, 3-{1-[(2,2-difluorocyclopropyl)methyl]-1H-pyrazol-4-yl}-7-fluoro-8-methoxy-2-(trifluoromethyl)-4H-pyrido[1,2-a]pyrimidin-4-one], with 0.005 µM; and `O=c1c(-c2ccc(OCC(F)(F)F)nc2)c(C(F)(F)F)nc2ccccn12` [Example 20, 3-(6-(2,2,2-Trifluoroethoxy)-3-pyridinyl)-2-(trifluoromethyl)-4H-pyrido[1,2-a]pyrimidin-4-one], with 0.109 µM.
Then `COc1ccn2c(=O)c(-c3cnn(CCCC(F)(F)F)c3)c(C(F)F)nc2c1` [Example 1-16, 2-(difluoromethyl)-8-methoxy-3-(1-(4,4,4-trifluorobutyl)-1H-pyrazol-4-yl)-4H-pyrido[1,2-a]pyrimidin-4-one], with 0.383 µM; and `COc1ccn2c(=O)c(-c3cnc(OCC(F)(F)F)nc3)c(C(F)(F)F)nc2n1` [Example 39-13, 8-methoxy-3-[2-(2,2,2-trifluoroethoxy)pyrimidin-5-yl]-2-(trifluoromethyl)-4H-[1,3]diazino[1,2-a]pyrimidin-4-one], with 0.248 µM; and `CN1CCn2c(nc(C(F)(F)F)c(-c3cnn(CC(F)(F)C(F)(F)F)c3)c2=O)C1` [Example 64, 8-Methyl-3-[1-(2,2,3,3,3-pentafluoropropyl)-1H-pyrazol-4-yl]-2-(trifluoromethyl)-4H,6H,7H,8H,9H-pyrimido[1,2-a]pyrazin-4-one], with 0.54 µM.
Consider `COc1ccn2c(=O)c(-c3cnc(OCC(F)(F)F)nc3)c(C(F)(F)F)nc2c1` [Example 37, 8-Methoxy-3-[2-(2,2,2-trifluoroethoxy)pyrimidin-5-yl]-2-(trifluoromethyl)-4H-pyrido[1,2-a]pyrimidin-4-one], for which the IC50 worked out at 0.0876 µM.
Take `N#CCc1ccn2c(=O)c(-c3cnn(CC(F)(F)C(F)(F)F)c3)c(C(F)(F)F)nc2c1` [Example 16-1, (4-Oxo-3-(1-(2,2,3,3,3-pentafluoropropyl)-1H-pyrazol-4-yl)-2-(trifluoromethyl)-4H-pyrido[1,2-a]pyrimidin-8-yl)acetonitrile]: the concentration for half-maximal inhibition (IC50) was 0.0524 µM.
The same measure for `COc1ccn2c(=O)c(-c3cnn(CC(F)(F)C(F)(F)F)c3)c(C(F)(F)F)nc2c1Cl` [Example 39-3, 9-chloro-8-methoxy-3-[1-(2,2,3,3,3-pentafluoropropyl)-1H-pyrazol-4-yl]-2-(trifluoromethyl)-4H-pyrido[1,2-a]pyrimidin-4-one]: 0.188 µM; for `C[C@H](O)c1ccn2c(=O)c(-c3ccc(OCC(F)(F)F)cc3)c(C(F)(F)F)nc2c1` [Example 30-1, 8-((1S)-1-hydroxyethyl)-3-(4-(2,2,2-trifluoroethoxy)phenyl)-2-(trifluoromethyl)-4H-pyrido[1,2-a]pyrimidin-4-one]: 0.0742 µM.
Then `C=Cc1ccn2c(=O)c(-c3ccc(OCC(F)(F)F)cc3)c(C(F)(F)F)nc2c1` [Example 2-8, 8-ethenyl-3-(4-(2,2,2-trifluoroethoxy)phenyl)-2-(trifluoromethyl)-4H-pyrido[1,2-a]pyrimidin-4-one], with 0.0254 µM.
